Test results from ChEMBL document CHEMBL1143211, “Inhibitors of proteases and amide hydrolases that employ an alpha-ketoheterocycle as a key enabling functionality” (Bioorg Med Chem, 2008).

What was measured:
[1] = Inhibition of HDAC
Coagulation factor X = Coagulation factor X (Homo sapiens, UniProt P00742); test: Inhibition of human factor 10a
Prothrombin = Prothrombin (Homo sapiens, UniProt P00734); test: Inhibition of human alpha-thrombin
[2] = target: T1, Fatty-acid amide hydrolase 1 (Rattus norvegicus, UniProt P97612)
T1 sequence (P97612 whole entry): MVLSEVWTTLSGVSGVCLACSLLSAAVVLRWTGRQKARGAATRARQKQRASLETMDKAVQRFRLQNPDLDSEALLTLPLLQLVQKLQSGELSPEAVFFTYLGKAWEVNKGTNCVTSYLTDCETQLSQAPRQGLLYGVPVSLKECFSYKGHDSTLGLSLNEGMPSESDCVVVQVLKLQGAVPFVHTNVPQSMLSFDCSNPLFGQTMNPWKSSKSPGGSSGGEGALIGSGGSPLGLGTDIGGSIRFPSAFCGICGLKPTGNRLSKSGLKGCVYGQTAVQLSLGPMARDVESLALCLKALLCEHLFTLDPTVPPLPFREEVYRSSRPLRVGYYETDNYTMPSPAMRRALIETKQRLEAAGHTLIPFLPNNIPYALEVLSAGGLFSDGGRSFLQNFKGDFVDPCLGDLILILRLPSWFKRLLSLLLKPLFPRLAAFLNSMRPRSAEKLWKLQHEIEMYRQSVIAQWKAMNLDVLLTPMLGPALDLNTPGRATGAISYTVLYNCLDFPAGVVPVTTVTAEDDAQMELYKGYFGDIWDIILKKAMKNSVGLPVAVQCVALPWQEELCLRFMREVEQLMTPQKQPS

[3] = Inhibition of human beta-tryptase
Trypsin = Trypsin (Homo sapiens, UniProt P07477+P07478+P35030); test: Inhibition of human trypsin; type: protein assay
Prolyl endopeptidase = Prolyl endopeptidase (Sus scrofa, UniProt P23687)
Prolyl endopeptidase, sequence (P23687 whole entry): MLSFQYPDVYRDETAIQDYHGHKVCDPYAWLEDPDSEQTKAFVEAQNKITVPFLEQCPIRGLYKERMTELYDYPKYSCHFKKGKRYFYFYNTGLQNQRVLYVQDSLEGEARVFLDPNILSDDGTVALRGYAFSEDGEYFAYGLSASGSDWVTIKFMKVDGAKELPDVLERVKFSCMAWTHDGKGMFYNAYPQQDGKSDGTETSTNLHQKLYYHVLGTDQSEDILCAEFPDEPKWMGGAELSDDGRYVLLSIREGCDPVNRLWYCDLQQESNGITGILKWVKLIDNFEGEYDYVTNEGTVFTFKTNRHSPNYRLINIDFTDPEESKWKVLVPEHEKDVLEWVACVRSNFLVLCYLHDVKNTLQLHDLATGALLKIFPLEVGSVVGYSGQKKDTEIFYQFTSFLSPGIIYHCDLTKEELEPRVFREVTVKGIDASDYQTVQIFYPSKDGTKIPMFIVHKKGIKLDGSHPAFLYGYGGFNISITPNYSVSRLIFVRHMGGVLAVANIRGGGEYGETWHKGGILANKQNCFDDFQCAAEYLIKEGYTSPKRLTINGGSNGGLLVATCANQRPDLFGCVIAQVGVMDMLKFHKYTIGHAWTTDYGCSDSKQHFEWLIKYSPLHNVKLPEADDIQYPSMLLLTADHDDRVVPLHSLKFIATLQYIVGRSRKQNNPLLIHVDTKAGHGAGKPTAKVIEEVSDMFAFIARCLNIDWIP

Coagulation factor X, sequence (P00742 41-179 limits assumed): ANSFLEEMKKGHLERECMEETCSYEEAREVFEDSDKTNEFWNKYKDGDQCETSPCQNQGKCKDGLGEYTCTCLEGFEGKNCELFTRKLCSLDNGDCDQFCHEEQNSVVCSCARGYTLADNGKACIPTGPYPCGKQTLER
Coagulation factor X, sequence (P00742 235-488 limits assumed): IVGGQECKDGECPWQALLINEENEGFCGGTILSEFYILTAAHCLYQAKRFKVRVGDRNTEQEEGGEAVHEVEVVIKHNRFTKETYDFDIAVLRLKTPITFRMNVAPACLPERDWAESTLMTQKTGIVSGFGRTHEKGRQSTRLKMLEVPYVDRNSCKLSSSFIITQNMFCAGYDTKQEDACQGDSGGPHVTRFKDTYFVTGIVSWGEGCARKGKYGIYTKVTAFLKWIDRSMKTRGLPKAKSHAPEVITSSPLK

O=C(CCCCCCC(=O)c1ncco1)Nc1cccc(-c2ccccc2)c1
IC50 [1]: 60 nM

NC(N)=NCCC[C@H](NC(=O)CN1CCN(S(=O)(=O)Cc2ccccc2)CC1=O)C(=O)c1nccs1
IC50 (Coagulation factor X): 4 nM | IC50 (Prothrombin): 390 nM

CCCCCCCC/C=C\CCCCCCCC(=O)c1nnn(C)n1
Ki [2]: 65 nM

CC(=O)NCC(=O)N[C@@H](CCCN=C(N)N)C(=O)c1nc2ccccc2s1
Ki [3]: 470 nM

NC(N)=NCCC[C@H](NC(=O)CN1CCN(C(=O)Cc2ccccc2)CC1=O)C(=O)c1nccs1
IC50 (Coagulation factor X): 17 nM | IC50 (Prothrombin): 11000 nM

O=C(CCCCCCOc1ccc(-c2ccccc2)cc1)c1nnn[nH]1
IC50 [1]: 1000 nM

N=C(N)N1CCC[C@@H](C[C@H](NC(=O)[C@@H]2CC[C@H]3CN(C(=O)CCc4ccccc4)CC(=O)N32)C(=O)c2nc3ccccc3s2)C1
IC50 (Prothrombin): < 1 nM | IC50 (Trypsin): 590 nM

N=C(N)N1CCC[C@@H](C[C@H](NC(=O)CN2C(=O)CN(CCCc3ccccc3)C(=O)[C@H]2Cc2ccccc2)C(=O)c2nccs2)C1
IC50 (Trypsin): 9100 nM

COC(=O)n1nnnc1C(=O)[C@@H](NC(=O)[C@@H]1CC[C@H]2CN(S(=O)(=O)Cc3ccccc3)CC(=O)N21)[C@H]1CC[C@H](N)CC1
Ki (Prothrombin): 2600 nM | Ki (Trypsin): > 400000 nM

N[C@H]1CC[C@H]([C@H](NC(=O)[C@@H]2CC[C@H]3CN(S(=O)(=O)Cc4ccccc4)CC(=O)N32)C(=O)c2nc3ccccc3s2)CC1
Ki (Prothrombin): 0.7 nM | Ki (Trypsin): 1400 nM

N=C(N)NCCC[C@H](NC(=O)CN1CCN[C@@H](CCCNC(=N)N)C1=O)C(=O)c1nccs1
IC50 (Coagulation factor X): 11 nM | IC50 (Prothrombin): 150000 nM

COC(=O)c1cccnc1-c1cnc(C(=O)CCCCCCc2ccccc2)o1
Ki [2]: 130 nM

N=C(N)NCCC[C@H](NC(=O)CN1CCN(S(=O)(=O)Cc2ccccc2)[C@@H](Cc2ccccc2)C1=O)C(=O)c1nccs1
IC50 (Coagulation factor X): 59 nM | IC50 (Prothrombin): 2000 nM

Cc1nc(C(=O)[C@@H](NC(=O)[C@@H]2CC[C@H]3CN(S(=O)(=O)Cc4ccccc4)CC(=O)N32)[C@H]2CC[C@H](N)CC2)sc1C(=O)O
Ki (Prothrombin): 80 nM | Ki (Trypsin): 65000 nM

O=C(CCc1ccc(-c2ccccc2)cc1)c1nc(-c2ccccn2)co1
Ki [2]: 0.75 nM

O=C(CCCCCCOc1cccc(-c2ccccc2)c1)c1ncco1
IC50 [1]: 620 nM

N[C@H]1CC[C@H]([C@H](NC(=O)[C@@H]2CC[C@H]3CN(S(=O)(=O)Cc4ccccc4)CC(=O)N32)C(=O)c2nccs2)CC1
Ki (Prothrombin): 3.2 nM | Ki (Trypsin): 8000 nM

O=C(CCCCCCOc1ccc(-c2ccccc2)cc1)c1nc2ccccc2o1
IC50 [1]: > 50000 nM

CCCCCCCCCC/C=C\CCCCCCC(=O)c1ncc(-c2cccnn2)o1
Ki [2]: 14 nM

N=C(N)NCCC[C@H](NC(=O)CN1CCN(C(=O)c2ccccc2)CC1=O)C(=O)c1nccs1
IC50 (Coagulation factor X): 320 nM | IC50 (Prothrombin): 7000 nM

CC(NC(=O)[C@H](CC(=O)N(C)C)NC(=O)[C@@H](NC(=O)CC(C)(C)C)C(C)(C)C)C(=O)c1nc2ccccc2s1 (stereo partly specified)
IC50 (Prolyl endopeptidase): 9000 nM

CCCCCCCC/C=C\CCCCCCCC(=O)c1nnnn1C
Ki [2]: 3700 nM

O=C(CCCCCCOc1ccc(-c2ccccc2)cc1)C1=NCCO1
IC50 [1]: 1000 nM

CC(=O)N1CCC[C@@H]1C(=O)N[C@@H](CCCN=C(N)N)C(=O)c1nc2ccccc2s1
Ki [3]: 14000 nM

O=C(C1=NCCS1)[C@@H]1CCCN1C(=O)[C@@H]1CCCN1CCCc1ccccc1
IC50 (Prolyl endopeptidase): 3.8 nM

O=C(c1ncc[nH]1)[C@@H]1CCCN1C(=O)[C@@H]1CCCN1CCCc1ccccc1
IC50 (Prolyl endopeptidase): 9 nM

NC(N)=NCCC[C@H](NC(=O)CN1CCN[C@H](CCCN=C(N)N)C1=O)C(=O)c1nccs1
IC50 (Coagulation factor X): 21 nM | IC50 (Prothrombin): 200000 nM

C[C@@H]1C(=O)N(CCCc2ccccc2)CC(=O)N1CC(=O)N[C@@H](C[C@@H]1CCCN(C(=N)N)C1)C(=O)c1nccs1
IC50 (Trypsin): 340 nM

CCCCC/C=C\C/C=C\C/C=C\C/C=C\CCCC(=O)[n+]1ccccn1
Ki [2]: 47 nM

O=C(CCCCCCC(=O)c1ncco1)Nc1cc2ccccc2[nH]1
IC50 [1]: 90 nM

O=C(c1cscn1)[C@@H]1CCCN1C(=O)[C@@H]1CCCN1CCCc1ccccc1
IC50 (Prolyl endopeptidase): 13 nM

O=C(CCCCCCNc1ccc2ccccc2c1)c1ncco1
IC50 [1]: 430 nM

N=C(N)N1CCC[C@@H](C[C@H](NC(=O)CN2CC(=O)N(CCCc3ccccc3)CC2=O)C(=O)c2nccs2)C1
Ki (Prothrombin): 500 nM | IC50 (Trypsin): 91000 nM

O=C(CCCCCCOc1ccc(-c2ccccc2)cc1)c1nccs1
IC50 [1]: > 50000 nM

CC(=O)N1C[C@H](O)C[C@@H]1C(=O)N[C@@H](CCCNC(=N)N)C(=O)c1nc2ccccc2s1
Ki [3]: 380 nM

NC(N)=NCCC[C@H](NC(=O)CN1CCN(S(=O)(=O)c2ccccc2)CC1=O)C(=O)c1nccs1
IC50 (Coagulation factor X): 8 nM | IC50 (Prothrombin): 420 nM

CC(NC(=O)[C@H](CC(=O)N(C)C)NC(=O)[C@@H](NC(=O)CC(C)(C)C)C(C)(C)C)C(=O)c1nc2ccccc2o1 (stereo partly specified)
IC50 (Prolyl endopeptidase): 80 nM

Cn1ccnc1C(=O)CCCCCCOc1ccc(-c2ccccc2)cc1
IC50 [1]: > 50000 nM
